Where two headings read alike, the source gives them in different places.
How the values were obtained:
bacteria = settings: for efficacy after home launderings: after 25 home launderings (FIG. 3); for efficacy (AATCC TM100): salts only, zero home launderings, liquor pH not lowered (FIG. 1)
Kp = settings: Polyester Fabric, Mathis JFO Exhaust
Method: High dye load samples are the most difficult to process using exhaustion dye techniques. A series of tests were run using PET (polyester) and polyspandex fabrics. In this test series the materials were tested in two different laboratories using container-style lab exhaust equipment. Alongside the treated samples, untreated fabrics were run for comparison.
The fabrics were tested as-made and after 25 home launderings (25 HL). Each home laundering was performed in a commercial front-load washing machine per AATCC Monograph M6 using Tide HE detergent.
Trials have been performed in a small Thiele exhaustion pilot unit, as well as in Mathis JFO pilot scale equipment, both of which use jets to forcibly impregnate the textile with the exhaust liquor.
Reductive Clears—Method A is 1% Na Hydrosulfite whereas Method B is 0.3% NaOH, 0.4% Na Hydrosulfite. “owg” is “on weight of goods”.

Row | SMILES | efficacy after home launderings (bacteria) | efficacy (AATCC TM100) (bacteria) | further results
1 | C/C=C/C=C/C(=O)O [sorbic acid] | able to maintain efficacy following multiple washing cycles |  | efficacy after a reductive clear (bacteria; exhausted on polyester fabric, 0 HL (FIG. 4)): demonstrate efficacy after the reductive clear
2 | O=C(O)CC(O)(CC(=O)O)C(=O)O [Citric acid, citric acid] | not able to maintain efficacy |  | 
3 | C/C=C/C=C/C(=O)[O-].[K+] [potassium sorbate, reference compound] |  | relatively low levels of efficacy | 
4 | O=C([O-])CC(O)(CC(=O)[O-])C(=O)[O-].[Na+].[Na+].[Na+] [trisodium citrate, reference compound] |  | relatively low levels of efficacy | 
5 | O=C([O-])c1ccccc1.[Na+] [sodium benzoate] |  | relatively low levels of efficacy | Percent reduction (Kp; 0 HL, sodium benzoate acidified with citric acid to pH<3.6, run as Example 4): 99.50%; Percent reduction (Kp; 25 HL, sodium benzoate acidified with citric acid to pH<3.6): 99.50%
